{
  "source": "ChEMBL document CHEMBL4251699",
  "about": "“In Search of the Optimal Macrocyclization Site for Neurotensin” (ACS Med Chem Lett, 2018)",
  "key": {"[1]": {"molecular_target": "T1, Neurotensin receptor type 1 (Homo sapiens, UniProt P30989)", "T1 sequence (P30989 whole entry)": "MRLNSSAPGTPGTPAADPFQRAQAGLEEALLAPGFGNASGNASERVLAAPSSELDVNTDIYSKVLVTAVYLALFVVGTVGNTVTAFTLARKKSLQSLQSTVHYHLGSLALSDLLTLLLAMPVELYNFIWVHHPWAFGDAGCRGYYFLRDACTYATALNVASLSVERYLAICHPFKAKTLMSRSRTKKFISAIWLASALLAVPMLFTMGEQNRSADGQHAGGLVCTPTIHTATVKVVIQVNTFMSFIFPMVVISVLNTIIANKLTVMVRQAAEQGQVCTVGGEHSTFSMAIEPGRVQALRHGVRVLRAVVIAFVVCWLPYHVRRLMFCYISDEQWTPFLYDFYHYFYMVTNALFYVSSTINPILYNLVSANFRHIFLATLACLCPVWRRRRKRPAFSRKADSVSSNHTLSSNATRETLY", "experiment": "Displacement of 125I-[Tyr3]-NT from human NTS1 receptor expressed in CHO-K1 cell membranes after 60 mins by gamma-counting method"}, "[2]": {"experiment": "Half life in rat plasma by UPLC-MS analysis", "type": "ADME, cell-free"}, "[3]": {"molecular_target": "T1, Neurotensin receptor type 1", "experiment": "Agonist activity at GFP10-tagged human NTS1 expressed in CHO-K1 cells assessed as Rluc2-fused beta-arrestin2 recruitment after 20 mins by BRET assay", "type": "functional, cell-based"}},
  "note": "pEC50, pIC50: −log10 of the molar value. Numbered stars: 1 amine (or outer) side, 2 acyl side, 3 side chain; on linkers, the order of the positions; unused ones are H or OH. Bridge positions count the residues as written; N and C are the ends. Square brackets hold non-standard residues; d marks the D form. Peptide text beside a SMILES is read from it. * marks the point of attachment. X1 = O=C([C@H](Cc1ccc(O)c(CC=[*:3])c1)N[*:1])[*:2]; X3 = C=CCc1cc(C[C@H](N[*:1])C(=O)[*:2])ccc1O; Ser(allyl) = C=CCOC[C@H](N)C(=O)O; AllylGly = C=CC[C@H](N)C(=O)O; X2 = C=CCCCCCCC(=O)*",
  "data": [
    {"smiles": "CC(C)C[C@H](NC(=O)[C@@H]1CC=CC[C@H](N)C(=O)N[C@@H](CCCCN)C(=O)N2CCC[C@H]2C(=O)N[C@@H](Cc2ccc(O)cc2)C(=O)N1)C(=O)O", "values": [
      {"measurement": "pIC50", "setting": "[1]", "value": 4.77}
    ]},
    {"smiles": "CC(C)C[C@H](NC(=O)[C@H]1CC=CC[C@H](N)C(=O)N[C@@H](CCCCN)C(=O)N2CCC[C@H]2C(=O)N[C@@H](Cc2ccc(O)cc2)C(=O)N1)C(=O)O", "values": [
      {"measurement": "pIC50", "setting": "[1]", "value": 4.84}
    ]},
    {"smiles": "CC[C@H](C)[C@H](NC(=O)[C@@H]1Cc2ccc(O)c(c2)CC=CCCCCCCC(=O)N[C@@H](CCCCN)C(=O)N2CCC[C@H]2C(=O)N1)C(=O)N[C@@H](CC(C)C)C(=O)O", "values": [
      {"measurement": "half-life", "setting": "[2]", "value": 12, "unit": "h"},
      {"measurement": "pIC50", "setting": "[1]", "value": 6.40},
      {"measurement": "pEC50", "setting": "[3]", "value": 5.86}
    ]},
    {"smiles": "CC[C@H](C)[C@@H]1NC(=O)[C@H](Cc2ccc(O)cc2)NC(=O)[C@@H]2CCCN2C(=O)[C@@H](NC(=O)[C@@H](N)CCCCN)CC=CC[C@@H](C(=O)O)NC1=O", "note": "(H-K[AllylGly]PYI[AllylGly]-OH; staple 2-6)", "values": [
      {"measurement": "pIC50", "setting": "[1]", "value": "< 4.00"}
    ]},
    {"smiles": "C=CCCCCCCC(=O)N[C@@H](CCCCN)C(=O)N1CCC[C@H]1C(=O)N[C@@H](Cc1ccc(O)c(CC=C)c1)C(=O)N[C@H](C(=O)N[C@@H](CC(C)C)C(=O)O)[C@@H](C)CC", "note": "(X2-KP[X3]IL-OH)", "values": [
      {"measurement": "pIC50", "setting": "[1]", "value": 5.85}
    ]},
    {"smiles": "CC[C@H](C)[C@H](NC(=O)[C@@H]1Cc2ccc(O)c(c2)CC=CCOC[C@H](NC(=O)[C@@H](N)CCCCN)C(=O)N2CCC[C@H]2C(=O)N1)C(=O)N[C@@H](CC(C)C)C(=O)O", "note": "(H-K[Ser(allyl)]P[X1]IL-OH; staple 2-4)", "values": [
      {"measurement": "pIC50", "setting": "[1]", "value": 4.99}
    ]},
    {"smiles": "CC[C@H](C)[C@H](NC(=O)[C@H](Cc1ccc(O)cc1)NC(=O)[C@@H]1CCCN1C(=O)[C@H](CCCNC(=N)N)NC(=O)[C@@H](N)CCCNC(=N)N)C(=O)N[C@@H](CC(C)C)C(=O)O", "values": [
      {"measurement": "half-life", "setting": "[2]", "value": 0.05, "unit": "h"}
    ]},
    {"smiles": "CC(C)C[C@H](NC(=O)[C@@H]1COCC=CCOC[C@H](N)C(=O)N[C@@H](CCCCN)C(=O)N2CCC[C@H]2C(=O)N[C@@H](Cc2ccc(O)cc2)C(=O)N1)C(=O)O", "note": "(H-[Ser(allyl)]KPY[Ser(allyl)]L-OH; staple 1-5)", "values": [
      {"measurement": "pIC50", "setting": "[1]", "value": "< 4.00"}
    ]},
    {"smiles": "CC(C)C[C@H](NC(=O)[C@H]1CC=CC[C@@H](N)C(=O)N[C@@H](CCCCN)C(=O)N2CCC[C@H]2C(=O)N[C@@H](Cc2ccc(O)cc2)C(=O)N1)C(=O)O", "values": [
      {"measurement": "pIC50", "setting": "[1]", "value": 4.70}
    ]},
    {"smiles": "C=CC[C@H](NC(=O)[C@H](Cc1ccc(O)cc1)NC(=O)[C@@H]1CCCN1C(=O)[C@H](CCCCN)NC(=O)[C@@H](N)CC=C)C(=O)N[C@@H](CC(C)C)C(=O)O", "note": "(H-[AllylGly]KPY[AllylGly]L-OH)", "values": [
      {"measurement": "pIC50", "setting": "[1]", "value": 5.77}
    ]},
    {"smiles": "CC(C)C[C@H](NC(=O)[C@@H]1CC=CC[C@@H](N)C(=O)N[C@@H](CCCCN)C(=O)N2CCC[C@H]2C(=O)N[C@@H](Cc2ccc(O)cc2)C(=O)N1)C(=O)O", "values": [
      {"measurement": "pIC50", "setting": "[1]", "value": 5.00}
    ]},
    {"smiles": "CC[C@H](C)[C@H](NC(=O)[C@@H]1Cc2ccc(O)c(c2)CC=CC[C@H](NC(=O)[C@@H](N)CCCCN)C(=O)N2CCC[C@H]2C(=O)N1)C(=O)N[C@@H](CC(C)C)C(=O)O", "note": "(H-K[AllylGly]P[X1]IL-OH; staple 2-4)", "values": [
      {"measurement": "pIC50", "setting": "[1]", "value": 5.12}
    ]},
    {"smiles": "CC(C)C[C@H](NC(=O)[C@@H]1COCC=CCc2cc(ccc2O)C[C@H](NC(=O)[C@@H]2CCCN2C(=O)[C@@H](N)CCCCN)C(=O)N1)C(=O)O", "values": [
      {"measurement": "pIC50", "setting": "[1]", "value": 4.53}
    ]}
  ]
}
